One assay deals with T1, HIV-1 protease (HIV-1 M:B_HXB2R, UniProt P04585).
T1 construct: cut from Gag-Pol polyprotein
As to the kind of experiment: HIV protease inhibition assay (HPLC method). The class given is biochemical. The settings on record: pH 5.5, 30° C., 1 hr. The method, then: The Ki values in TABLE 1 were determined using the assay conditions described below under HIV Protease Inhibition Assay (HPLC Method). The Ki values are indicated as follows: +++=<10 nM; ++=10 nM to 1 μM; +=>[…].
HIV PROTEASE INHIBITION ASSAY (HPLC METHOD)
Protease: Inclusion bodies of E. coli harboring plasmid T1718R with a synthetic gene coding for a single-chain tethered dimer of HIV protease were prepared as described in Cheng et al. Proc. Natl. Acad. Sci. USA 1990, 87, 9660. Active protease was prepared as described therein by extraction with 67% acetic acid, dilution 33-fold with water, dialysis against water and then against a "refolding buffer" comprising 20 mM MES, 1 mM dithiothreitol and 10% glycerol, pH 5.5. Protease was stored as a stock preparation at 10 uM in refolding buffer.
Substrate: Peptide of the sequence aminobenzoyl-Ala-Thr-His-Gln-Val-Tyr-Phe(NO2)-Val-Arg-Lys-Ala containing p-nitrophenylalanine (Phe(NO2)), was prepared by solid phase synthesis as previously described (Cheng et al. Proc. Natl. Acad. Sci. USA 1990, 87, 9660). Stock solutions of 2 mM substrate were prepared in DMSO.
Inhibitory compounds were dissolved in sufficient DMSO to make 3 mM stock solutions. All further dilutions were prepared in "assay buffer" comprising 1M NaCl, 50 mM MES, pH 5.5, 1 mM EDTA, 1 mM DTT and 20% glycerol.
Enzyme reaction: To a 2 mL screw-cap centrifuge tube were added 50 uL protease (final concentration 0.25 nM) and 0.1 mL inhibitor compound (final concentration 0.1-12,500 nM). After 15 min preincubation at room temperature, the reaction was started by the addition of 0.05 mL substrate (final concentration 5 uM). Incubation was carried out at 30° C. for 1 hr. The reaction was stopped by addition of 1 mL of 0.1M ammonium hydroxide solution.
HPLC measurement of product formation: The product (aminobenzoyl-Ala-Thr-His-Gln-Val-Tyr) was separated from substrate on a Pharmacia MonoQ anion exchange column. The injection volume was 0.2 mL. The mobile phases comprised: solution A (20 mM tris HCl, pH 9.0, 0.02% sodium azide, 10% acetonitrile), and solution B (20 mM tris HCl, pH 9.0, 0.02% sodium azide, 0.5M ammonium formate, 10% acetonitrile). The mobile phases were pumped at 1 mL/min, with a gradient from 0 to 30% B in 5 min, 100% B for 4 min to wash the column, and a re-equilibration wash with A for 4 min. The retention time of the product was 3.6 min. Detection with a Shimadzu model RF535 fluorescence monitor was at 330 nm (excitation) and 430 nm (emission). The Ki was calculated from the formula Ki=I/(((Km+S-FA*S)/(FA*Km))-1) where I=inhibitor concentration, S=substrate concentration, FA=fractional activity=cm peak height with inhibitor/cm peak height without inhibitor and Km=Michaelis constant=20 uM.

Another assay relates to HIV-1 (RF). As to the kind of experiment: HIV RNA assay (microplate based compound evaluation in HIV-1 infected MT-2 cells). Type of assay: cell-based. The settings on record: Human immunodeficiency virus 1, MT2, 72 h; HIV RNA assay, HIV-1 (RF) infected MT-2 cells, 3 days, 37° C.; read-out: IC90. Here is the method:
DNA Plasmids and In Vitro RNA Transcripts
Plasmid pDAB 72 containing both gag and pol sequences of BH10 (bp 113-1816) cloned into PTZ 19R was prepared according to Erickson-Viitanen et al. AIDS Research and Human Retroviruses 1989, 5, 577. The plasmid was linearized with Bam HI prior to the generation of in vitro RNA transcripts using the Riboprobe Gemini system II kit (Promega) with T7 RNA polymerase. Synthesized RNA was purified by treatment with RNase free DNAse (Promega), phenol-chloroform extraction, and ethanol precipitation. RNA transcripts were dissolved in water, and stored at -70° C. The concentration of RNA was determined from the A260.
Biotinylated capture probes were purified by HPLC after synthesis on an Applied Biosystems (Foster City, Calif.) DNA synthesizer by addition of biotin to the 5' terminal end of the oligonucleotide, using the biotinphosphoramidite reagent of Cocuzza, Tet. Lett. 1989, 30, 6287. The gag biotinylated capture probe (5-biotin-[…] 3') was complementary to nucleotides 889-912 of HXB2 and the pol biotinylated capture probe (5'-biotin --[…] 3') was complementary to nucleotides 2374-2395 of HXB2. Alkaline phosphatase conjugated oligonucleotides used as reporter probes were prepared by Syngene (San Diego, Calif.). The pol reporter probe (5' […] 3') was complementary to nucleotides 2403-2425 of HXB2. The gag reporter probe (5' […] 3') was complementary to nucleotides 950-973 of HXB2. All nucleotide positions are those of the GenBank Genetic Sequence Data Bank as accessed through the Genetics Computer Group Sequence Analysis Software Package (Devereau Nucleic Acids Research 1984, 12, 387). The reporter probes were prepared as 0.5 μM stocks in 2×SSC(0.3M NaCl, 0.03M sodium citrate), 0.05M Tris pH 8.8, 1 mg/mL BSA. The biotinylated capture probes were prepared as 100 μM stocks in water.
Streptavidin Coated Plates
Nunc-immunomodule microtiter plate strips were coated by addition of 200 μL of streptavidin (30 μg/mL, Scripps, La Jolla, Calif.) in freshly prepared 10 mM sodium carbonate (pH 9.6). Plates were incubated overnight at 4° C. Streptavidin solution was aspirated from the wells and a blocking buffer composed of phosphate buffered saline (PBS), 20 mg/mL bovine serum albumin (crystalline, nuclease and protease free, Calbiochem) and 100 mg/mL lactose (Sigma) was added to the plates for 3 hrs at room temperature. Blocking buffer was removed from the wells, which were allowed to dry overnight at room temperature and subsequently stored at 4° C. in zip lock bags with desiccant. For the majority of the compound evaluation experiments, streptavidin coated plates were obtained from Du Pont Biotechnology Systems (Boston, Mass.).
MT-2, CEM, and H9 cells were maintained in RPMI 1640 supplemented with 5% fetal calf serum (FCS), 2 mM L-glutamine and 50 μg/mL gentamycin, all from Gibco. Laboratory strains of HIV-1 (RF, MN and IIIB) were propagated in H9 cells in the same medium. Virus stocks were prepared approximately 1 month after acute infection of H9 cells by clarification of the tissue culture medium and storage of aliquots at -70° C. Infectious titers of HIV-1 (RF) stocks were 1-3×10^7 PFU (plaque forming units)/mL as measured by plaque assay on MT-2 cells (see below). Each aliquot of virus stock used for infection was thawed only once. In some cases, infected H9 cells were shifted to Dulbecco's modified Eagle's medium 3-10 days before collection of virus in order to generate virus stocks in medium with low biotin content. Clinical isolates of HIV that had been passaged once in MT-2 cells were used to infect fresh MT-2 cells in RPMI medium. Three days after infection, cells were pelleted, resuspended and culture continued in Dulbecco's modified Eagle's medium as above. Virus stocks of clinical isolates were prepared 10-15 days after infection when cytopathic effects were apparent in the culture. […]

SMILES strings stand for the structures. pKi: −log10 of the molar value.

As usually defined, the pKi is the Ki on a negative log10 scale, so that one unit is a factor of ten. The term IC90 denotes the point of the concentration-response curve where the effect stands at 90%.

Regarding `O=P12O[C@H]([C@@H](O)[C@@H](Cc3ccccc3)N1Cc1ccc(CO)cc1)[C@@H](Cc1ccccc1)N2Cc1ccc(CO)cc1` [Example 5C, (3-endo,4-endo,6-exo)-2,7-Bis(4-(hydroxymethyl)phenylmethyl)-3,6-bis(phenylmethyl)-8-oxa-2,7-diaza-1-phosphabicyclo[3.2.1]octan-4-ol 1-oxide], on HIV-1 protease, the pKi was over 8.00. Besides, the IC90 in the assay with HIV-1 (RF) was under 10 µg/mL.

The values are drawn from patent publication US5543517A, “Substituted bicyclic phosphoramides and derivatives thereof” (The DuPont Merck Pharmaceutical Company, priority 1994, dated 1996).
